Assay results: article PMC6264278, “Corydaline Inhibits Multiple Cytochrome P450 and UDP-Glucuronosyltransferase Enzyme Activities in Human Liver Microsomes” (Molecules, 2011)
Read-outs that look alike come from different tables or passages of the source.

Experiments:
CYP2C8 = molecular target: T1, CYP2C8 (Homo sapiens, UniProt P10632); assay: CYP2C8 amodiaquine N-deethylation inhibition, cocktail assay in pooled human liver microsomes; type: in vitro ADME; settings: 2.5 μM amodiaquine, no inhibition at 200 μM of corydaline; for IC50 no preincubation, CYP2C8 amodiaquine N-deethylation: pooled human liver microsomes (H161)
T1 construct: using pooled human liver microsomes; tissue BD Gentest Co. H161; host or cells: pooled human liver microsomes
T1 sequence (P10632 1-490): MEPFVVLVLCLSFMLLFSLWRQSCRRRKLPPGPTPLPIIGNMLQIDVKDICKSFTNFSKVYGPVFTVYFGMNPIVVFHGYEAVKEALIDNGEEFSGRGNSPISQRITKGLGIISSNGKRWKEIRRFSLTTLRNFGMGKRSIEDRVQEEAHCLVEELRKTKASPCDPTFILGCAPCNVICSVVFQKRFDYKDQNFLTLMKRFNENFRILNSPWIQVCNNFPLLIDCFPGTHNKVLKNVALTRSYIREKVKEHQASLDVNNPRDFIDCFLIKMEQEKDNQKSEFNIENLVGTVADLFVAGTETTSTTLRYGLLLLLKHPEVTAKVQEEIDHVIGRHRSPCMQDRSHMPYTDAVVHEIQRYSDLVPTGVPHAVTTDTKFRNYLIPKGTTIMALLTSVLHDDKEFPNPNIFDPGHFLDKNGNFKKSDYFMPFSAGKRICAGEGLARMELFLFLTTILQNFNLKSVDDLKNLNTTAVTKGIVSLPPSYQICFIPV
Experimental: (§1) Phenacetin O-deethylase, coumarin 7-hydroxylase, amodiaquine N-deethylase, diclofenac 4-hydroxylase, S-mephenytoin 4-hydroxylase, bufuralol hydroxylase, and midazolam 1’-hydroxylase activities were determined as probe activities for CYP1A2, CYP2A6, CYP2C8, CYP2C9, CYP2C19, CYP2D6, and CYP3A4, respectively, using cocktail incubation and liquid chromatography-tandem mass spectrometry (LC/MS/MS). The incubation mixtures were prepared in a total volume of 200 μL, as follows: pooled human liver microsomes (0.25 mg/mL), 1.3 mM NADPH, 3.3 mM MgCl2, 50 mM potassium phosphate buffer (pH 7.4), and a cocktail of probe substrates and various concentrations of corydaline (1−200 μM). The substrates were used at concentrations approximately equal to their respective Km values: 50 μM phenacetin, 2.5 μM coumarin, 2.5 μM amodiaquine, 10 μM diclofenac, 100 μM S-mephenytoin, 5 μM bufuralol, and 2.5 μM midazolam. After a 3-min pre-incubation period at 37 °C, the reactions were initiated by addition of an NADP generating system and incubated for 20 min at 37 °C in a shaking water bath. After incubation, the reaction was stopped by placement of the tubes on ice and addition of 100 μL of ice-cold methanol containing internal standards (^13C2,^15N-acetaminophen for acetaminophen and N-desethylamodiaquine, d5-7-hydroxycoumarin for 7-hydroxycoumarin, ^13C6-4-hydroxydiclofenac for 4-hydroxydiclofenac, d3-4-hydroxy-mephenytoin for 4-hydroxymephenytoin and hydroxymidazolam, d9-1-hydroxybufuralol for 1-hydroxybufuralol). The incubation mixtures were then centrifuged at 13,000 × g for 5 min. All incubations were performed in triplicate and the mean values were used. […] The reaction was started by addition of a cocktail of CYP probe substrates.
All 7 metabolites produced from the cocktail of CYP isoform-specific substrates were simultaneously determined by LC/MS/MS [25]. […] Quantification was performed by selected reaction monitoring (SRM) of the [M+H]^+ ion and the related product ion for each metabolite. […]

CYP2D6 = molecular target: T2, CYP2D6 (Homo sapiens, UniProt P10635); assay: CYP2D6 bufuralol 1'-hydroxylation inhibition in pooled human liver microsomes; type: in vitro ADME; settings: for inhibition mode, CYP2D6 bufuralol 1'-hydroxylation: Lineweaver, Dixon and secondary reciprocal plots; for IC50: 5.0 μM bufuralol, mean ± SD, n = 3
T2 construct: using pooled human liver microsomes; tissue BD Gentest Co. H161; host or cells: pooled human liver microsomes
Experimental: as §1
All 7 metabolites produced from the cocktail of CYP isoform-specific substrates were simultaneously determined by LC/MS/MS [25]. The system consisted of a tandem quadrupole mass spectrometer (TSQ Quantum Access, ThermoFisher Scientific, San Jose, CA, USA) coupled with a Nanospace SI-2 LC system. Separation was performed on an Atlantis dC18 column (5 μm, 2.1 mm i.d. ×100 mm, Waters, Milford, MA, USA) using the gradient elution of a mixture of 5% methanol in 0.1% formic acid (mobile phase A) and 95% methanol in 0.1% formic acid (mobile phase B) at a flow rate of 0.25 mL/min: 10% mobile phase B for 1 min, 10% to 95% mobile phase B for 1 min, 95% mobile phase B for 5 min. The column and autosampler temperatures were 50 and 6 °C, respectively. After 1.5 min, the LC eluent was diverted from waste to the mass spectrometer fitted with the electrospray ionization (ESI) source and operated in positive ion mode. […] Quantification was performed by selected reaction monitoring (SRM) of the [M+H]^+ ion and the related product ion for each metabolite. […]
Reactions were initiated by addition of NADPH at 37 °C and stopped after 15 min by placement of the incubation tubes on ice and addition of ice-cold methanol (100 μL) containing an internal standard (2.0 μg/mL ^13C6-4-hydroxydiclofenac for diclofenac, 0.5 μg/mL d3-4-hydroxymephenytoin for mephenytoin, or 0.5 μg/mL d9-1-hydroxy-bufuralol for bufuralol). The incubation mixtures were centrifuged at 13,000 × g for 5 min, and aliquots (5 μL) of the supernatants were analyzed by LC/MS/MS. […] Aliquots (5 μL) were analyzed by LC/MS/MS. […]

T2 sequence (P10635 whole entry): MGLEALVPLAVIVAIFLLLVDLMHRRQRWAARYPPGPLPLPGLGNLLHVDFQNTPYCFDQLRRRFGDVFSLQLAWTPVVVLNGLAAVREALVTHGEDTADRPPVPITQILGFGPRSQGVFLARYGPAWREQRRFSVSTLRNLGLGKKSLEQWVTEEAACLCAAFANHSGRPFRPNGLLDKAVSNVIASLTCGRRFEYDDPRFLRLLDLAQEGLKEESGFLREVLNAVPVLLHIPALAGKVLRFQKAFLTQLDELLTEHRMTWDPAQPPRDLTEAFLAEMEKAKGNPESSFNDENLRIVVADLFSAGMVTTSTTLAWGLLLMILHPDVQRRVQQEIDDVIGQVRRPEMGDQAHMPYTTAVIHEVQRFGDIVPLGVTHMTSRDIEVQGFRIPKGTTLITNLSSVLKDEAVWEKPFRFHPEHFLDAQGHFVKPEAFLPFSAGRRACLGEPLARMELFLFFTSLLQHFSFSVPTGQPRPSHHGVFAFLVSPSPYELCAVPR

Question: Which results are given for COc1cc2c(cc1OC)C1C(C)c3ccc(OC)c(OC)c3CN1CC2 (centres unmarked) [Corydaline, 2,3,9,10-tetramethoxy-13-methyl-5,8,13,13a-tetrahydro-6H-isoquino[3,2-a]isoquinoline]?
Answer: IC50 no preincubation, CYP2C8 amodiaquine N-deethylation (CYP2C8): negligible inhibition; IC50 no preincubation, CYP2C8 amodiaquine N-deethylation (CYP2C8; listed as corydaline): No inhibition **; IC50 with preincubation, CYP2C8 amodiaquine N-deethylation (CYP2C8; pre-incubated 30 min with NADPH): No inhibition **; inhibition mode, CYP2D6 bufuralol 1'-hydroxylation (CYP2D6): competitively; inhibition mode, CYP2D6 bufuralol 1'-hydroxylation (CYP2D6; listed as corydaline): competitive; Ki (CYP2D6; human liver microsomes, 0.5-5 μM bufuralol): 27.3 ± 0.7 µM; IC50 (CYP2D6; pooled human liver microsomes (H161), read-out: IC50 no preincubation, CYP2D6 bufuralol 1'-hydroxylation): 64.5 ± 9.8 µM; IC50 (CYP2D6; pre-incubated 30 min with NADPH, read-out: IC50 with preincubation, CYP2D6 bufuralol 1'-hydroxylation): 116 ± 7.6 µM
